Assay results as given in patent US12194124B2, “Personal care compositions for treating odor causing bacteria and methods for the same” (Colgate-Palmolive Company, priority 2019, dated 2025).

Tested on: S. Haemolyticus
Assay: Growth inhibition assay in 96-well plate, optical density of S. Haemolyticus
Format: cell-based, Staphylococcus haemolyticus
Method: The efficacy of 2-butyl octanol for selectively promoting, inhibiting, reducing, and/or treating bacterial growth was evaluated. Particularly, the efficacy of 2-butyl octanol for selectively promoting, inhibiting, reducing, and/or treating bacterial growth of Corynebacterium and Staphylococcus was evaluated. To evaluate the efficacy, an active solution was prepared by emulsifying 2-butyl octanol with a nonionic surfactant, namely, Polysorbate 80. The active solution included the 2-butyl octanol and the Polysorbate 80 in a ratio of about 83:17. Both positive controls (including no active solution) and negative controls (including no bacteria) were also prepared.
A 96-well plate was utilized to evaluate the growth of the respective bacteria at varying dilutions. Each of the wells of a 96-well plate was aseptically filled with about 100 μL of Tryptic Soy Broth (TSB). In the first well of each row, about 100 μL of either the active solution (including the 2-butyl octanol and Polysorbate 80) or the desired solvent for the respective positive and negative controls was added to thereby provide a total of about 200 μL in the first well of the each respective row. A multi-channel pipette was then utilized to prepare a two-fold dilution in each column. Specifically, a multi-channel pipette set to about 100 μL was utilized to mix and transfer about 100 μL of the 200 μL from the wells of the first column to the respective wells of a subsequent column. This was repeated for each of the remaining eleven columns. About 100 μL of the twelfth column was removed, thereby leaving about 100 μL in each of the 96 wells. […] Specifically, a phosphate buffered saline (PBS) was utilized for the negative control. About 100 μL of the respective bacteria adjusted to 0.1 optical density (OD) bacteria was added to all other wells. The well plate was then incubated overnight at about 37° C. in a growth inhibition assay machine. Measurements were taken at about one hour increments.

With `CCCCCCC(CO)CCCC` (stereo not shown) [2-butyl octanol, 2-butyl-1-octanol] the “Measured Optical Density of S. Haemolyticus” value (from here on “Measured Optical Density”) (0.02% 2-Butyl Octanol, 1 Hour) was 0.017, the “Measured Optical Density” value (0.02% 2-Butyl Octanol, 2 Hour) was 0.129 and the “Measured Optical Density” value (0.02% 2-Butyl Octanol, 3 Hour) was 0.203. For the same compound, the “Measured Optical Density” value (0.02% 2-Butyl Octanol, 4 Hour) was 0.218, the “Measured Optical Density” value (0.02% 2-Butyl Octanol, 5 Hour) was 0.272 and the “Measured Optical Density” value (0.02% 2-Butyl Octanol, 6 Hour) was 0.34. For the same compound, the “Measured Optical Density” value (0.02% 2-Butyl Octanol, 7 Hour) was 0.426, the “Measured Optical Density” value (0.02% 2-Butyl Octanol, 8 Hour) was 0.503 and the “Measured Optical Density” value (0.02% 2-Butyl Octanol, 9 Hour) was 0.558. The “Measured Optical Density” value (0.02% 2-Butyl Octanol, 10 Hour) was 0.616, the “Measured Optical Density” value (0.02% 2-Butyl Octanol, 11 Hour) was 0.649 and the “Measured Optical Density” value (0.02% 2-Butyl Octanol, 12 Hour) was 0.671. The “Measured Optical Density” value (0.02% 2-Butyl Octanol, 13 Hour) was 0.702, the “Measured Optical Density” value (0.02% 2-Butyl Octanol, 14 Hour) was 0.719 and the “Measured Optical Density” value (0.02% 2-Butyl Octanol, 15 Hour) was 0.724. The “Measured Optical Density” value (0.02% 2-Butyl Octanol, 16 Hour) was 0.735, the “Measured Optical Density” value (0.02% 2-Butyl Octanol, 17 Hour) was 0.748 and the “Measured Optical Density” value (0.02% 2-Butyl Octanol, 18 Hour) was 0.751. For the same compound, the “Measured Optical Density” value (0.04% 2-Butyl Octanol, 1 Hour) was 0.026, the “Measured Optical Density” value (0.04% 2-Butyl Octanol, 2 Hour) was 0.153 and the “Measured Optical Density” value (0.04% 2-Butyl Octanol, 3 Hour) was 0.237. The “Measured Optical Density” value (0.04% 2-Butyl Octanol, 4 Hour) was 0.247, the “Measured Optical Density” value (0.04% 2-Butyl Octanol, 5 Hour) was 0.286 and the “Measured Optical Density” value (0.04% 2-Butyl Octanol, 6 Hour) was 0.328. The “Measured Optical Density” value (0.04% 2-Butyl Octanol, 7 Hour) was 0.389, the “Measured Optical Density” value (0.04% 2-Butyl Octanol, 8 Hour) was 0.453 and the “Measured Optical Density” value (0.04% 2-Butyl Octanol, 9 Hour) was 0.514. The “Measured Optical Density” value (0.04% 2-Butyl Octanol, 10 Hour) was 0.56, the “Measured Optical Density” value (0.04% 2-Butyl Octanol, 11 Hour) was 0.596 and the “Measured Optical Density” value (0.04% 2-Butyl Octanol, 12 Hour) was 0.619. For the same compound, the “Measured Optical Density” value (0.04% 2-Butyl Octanol, 13 Hour) was 0.624, the “Measured Optical Density” value (0.04% 2-Butyl Octanol, 14 Hour) was 0.635 and the “Measured Optical Density” value (0.04% 2-Butyl Octanol, 15 Hour) was 0.656. The “Measured Optical Density” value (0.04% 2-Butyl Octanol, 16 Hour) was 0.657, the “Measured Optical Density” value (0.04% 2-Butyl Octanol, 17 Hour) was 0.671 and the “Measured Optical Density” value (0.04% 2-Butyl Octanol, 18 Hour) was 0.676. For the same compound, the “Measured Optical Density” value (0.08% 2-Butyl Octanol, 1 Hour) was 0.039, the “Measured Optical Density” value (0.08% 2-Butyl Octanol, 2 Hour) was 0.205 and the “Measured Optical Density” value (0.08% 2-Butyl Octanol, 3 Hour) was 0.308. For the same compound, the “Measured Optical Density” value (0.08% 2-Butyl Octanol, 4 Hour) was 0.317, the “Measured Optical Density” value (0.08% 2-Butyl Octanol, 5 Hour) was 0.355 and the “Measured Optical Density” value (0.08% 2-Butyl Octanol, 6 Hour) was 0.401. The “Measured Optical Density” value (0.08% 2-Butyl Octanol, 7 Hour) was 0.462, the “Measured Optical Density” value (0.08% 2-Butyl Octanol, 8 Hour) was 0.53 and the “Measured Optical Density” value (0.08% 2-Butyl Octanol, 9 Hour) was 0.58. The “Measured Optical Density” value (0.08% 2-Butyl Octanol, 10 Hour) was 0.614, the “Measured Optical Density” value (0.08% 2-Butyl Octanol, 11 Hour) was 0.637 and the “Measured Optical Density” value (0.08% 2-Butyl Octanol, 12 Hour) was 0.647. The “Measured Optical Density” value (0.08% 2-Butyl Octanol, 13 Hour) was 0.673, the “Measured Optical Density” value (0.08% 2-Butyl Octanol, 14 Hour) was 0.683 and the “Measured Optical Density” value (0.08% 2-Butyl Octanol, 15 Hour) was 0.693. The “Measured Optical Density” value (0.08% 2-Butyl Octanol, 16 Hour) was 0.708, the “Measured Optical Density” value (0.08% 2-Butyl Octanol, 17 Hour) was 0.733 and the “Measured Optical Density” value (0.08% 2-Butyl Octanol, 18 Hour) was 0.744. For the same compound, the “Measured Optical Density” value (0.16% 2-Butyl Octanol, 1 Hour) was 0.049, the “Measured Optical Density” value (0.16% 2-Butyl Octanol, 2 Hour) was 0.175 and the “Measured Optical Density” value (0.16% 2-Butyl Octanol, 3 Hour) was 0.26. For the same compound, the “Measured Optical Density” value (0.16% 2-Butyl Octanol, 4 Hour) was 0.285, the “Measured Optical Density” value (0.16% 2-Butyl Octanol, 5 Hour) was 0.326 and the “Measured Optical Density” value (0.16% 2-Butyl Octanol, 6 Hour) was 0.39. For the same compound, the “Measured Optical Density” value (0.16% 2-Butyl Octanol, 7 Hour) was 0.464, the “Measured Optical Density” value (0.16% 2-Butyl Octanol, 8 Hour) was 0.524 and the “Measured Optical Density” value (0.16% 2-Butyl Octanol, 9 Hour) was 0.579. The “Measured Optical Density” value (0.16% 2-Butyl Octanol, 10 Hour) was 0.627, the “Measured Optical Density” value (0.16% 2-Butyl Octanol, 11 Hour) was 0.66 and the “Measured Optical Density” value (0.16% 2-Butyl Octanol, 12 Hour) was 0.684. For the same compound, the “Measured Optical Density” value (0.16% 2-Butyl Octanol, 13 Hour) was 0.71, the “Measured Optical Density” value (0.16% 2-Butyl Octanol, 14 Hour) was 0.719 and the “Measured Optical Density” value (0.16% 2-Butyl Octanol, 15 Hour) was 0.724. For the same compound, the “Measured Optical Density” value (0.16% 2-Butyl Octanol, 16 Hour) was 0.74, the “Measured Optical Density” value (0.16% 2-Butyl Octanol, 17 Hour) was 0.756 and the “Measured Optical Density” value (0.16% 2-Butyl Octanol, 18 Hour) was 0.77. For the same compound, the “growth of S. hominis” value (2-butyl octanol about 0.02 weight % to about 5.2 weight %) was “did not inhibit the growth of and/or promoted the growth of”, the “Measured Optical Density” value (5.2% 2-Butyl Octanol, 1 Hour) was 0.198 and the “Measured Optical Density” value (5.2% 2-Butyl Octanol, 2 Hour) was 0.254. The “Measured Optical Density” value (5.2% 2-Butyl Octanol, 3 Hour) was 0.345, the “Measured Optical Density” value (5.2% 2-Butyl Octanol, 4 Hour) was 0.383 and the “Measured Optical Density” value (5.2% 2-Butyl Octanol, 5 Hour) was 0.396. For the same compound, the “Measured Optical Density” value (5.2% 2-Butyl Octanol, 6 Hour) was 0.384, the “Measured Optical Density” value (5.2% 2-Butyl Octanol, 7 Hour) was 0.403 and the “Measured Optical Density” value (5.2% 2-Butyl Octanol, 8 Hour) was 0.477. The “Measured Optical Density” value (5.2% 2-Butyl Octanol, 9 Hour) was 0.549, the “Measured Optical Density” value (5.2% 2-Butyl Octanol, 10 Hour) was 0.603 and the “Measured Optical Density” value (5.2% 2-Butyl Octanol, 11 Hour) was 0.622. For the same compound, the “Measured Optical Density” value (5.2% 2-Butyl Octanol, 12 Hour) was 0.639, the “Measured Optical Density” value (5.2% 2-Butyl Octanol, 13 Hour) was 0.654 and the “Measured Optical Density” value (5.2% 2-Butyl Octanol, 14 Hour) was 0.681. The “Measured Optical Density” value (5.2% 2-Butyl Octanol, 15 Hour) was 0.699, the “Measured Optical Density” value (5.2% 2-Butyl Octanol, 16 Hour) was 0.722 and the “Measured Optical Density” value (5.2% 2-Butyl Octanol, 17 Hour) was 0.742. The “Measured Optical Density” value (5.2% 2-Butyl Octanol, 18 Hour) was 0.752.
